Experimental data from patent US5451599A, “Complex salts of hematoporphyrin and of its derivatives, their synthesis, and therapeutic agent” (Wojskowa Akademia Techniczna im. Jaroslawa Dabrowskiego, priority 1991, dated 1995).

Legend:
[1] = system: T-47D (breast cancer cells); test: 48 h incubation with the salts: cell fluorescence, living cells, multiplication coefficient (Table 3); type: cell-based, Human; conditions: 48 hs, 50 mcg/ml
Experimental: (§1) New compounds of formula 1 were tested on cell lines. Use was made of 9 different neoplastic cell lines which were incubated for 48 hs with various new salts of protoporphyrin and with a new salt of the conventionally applied HpD preparation/hematoporphyrin derivatives/obtained according to Lipson et al. All compounds were used in the form of aqueous solutions, at a concentration of 50 mcg/ml. Determination was made of:
(§2) 1/ Cell fluorescence /F/: after 48 hs incubation, the cells were washed away, the intensity of fluorescence was measured in a fluorescence microscope and was expressed on an arbitrary scale of 0-4 scores;
(§3) 2/ Percentage of living cells /P %/ after 48 hs incubation;
(§4) 3/ Cell multiplication coefficient /M/ in the presence of different preparations, expressed as: [formula]
T-47D breast cancer cells

[2] = system: KB (oral cavity cancer cells); test: 48 h incubation with the salts: cell fluorescence, living cells, multiplication coefficient (Table 2); type: cell-based, Human; conditions: 48 hs, 50 mcg/ml
Experimental: as §1, §2, §3, §4
KB oral cavity cancer cells

[3] = system: transplanted mammary gland cancer; test: survival of C3H mice with transplanted mammary gland cancer, with and without He-Ne laser irradiation (FIG. 6); type: in vivo; conditions: 10 mg/kg body weight; with or without He-Ne laser 150 J/cm^2
Experimental: FIG. 6 is a graph showing the survival rate of C3H mice with transplanted mammary gland cancer after administration of compounds of the invention (with and without irradiation) and a control.
The new compounds were also studied in animals.
In animal studies, C3H mice with transplanted mammary gland cancer were administered both above-mentioned compounds in a dose of 10 mg/kg body weight, in two variants: mice irradiated with He-Ne laser in a dose of 150 J/cm^2 /in FIG. 6, marked by the letter L next to the symbol of the compound/and not irradiated ones. The results are recorded in the Figure.

[4] = system: GR (GRMT/F6, mammary gland cancer cells of GR-strain mice); test: 48 h incubation with the salts: cell fluorescence, living cells, multiplication coefficient (Table 2); type: cell-based, Murine; conditions: 48 hs, 50 mcg/ml
Experimental: as §1, §2, §3, §4
GRMT/F6 mammary gland cancer cells of GR-strain mice

[5] = system: MA-104 (Rhesus monkey embryo kidney cancer cells); test: 48 h incubation with the salts: cell fluorescence, living cells, multiplication coefficient (Table 1); type: cell-based; conditions: 48 hs, 50 mcg/ml
Experimental: as §1, §2, §3, §4

CL = test: as above; type: cell-based; conditions: 48 hs, 50 mcg/ml
Experimental: as §1, §2, §3, §4

PZ = test: as above; type: cell-based; conditions: 48 hs, 50 mcg/ml
Experimental: as §1, §2, §3, §4

[6] = system: HBT-39/w (breast cancer cells); test: 48 h incubation with the salts: cell fluorescence, living cells, multiplication coefficient (Table 2); type: cell-based, Human; conditions: 48 hs, 50 mcg/ml
Experimental: as §1, §2, §3, §4

[7] = system: Mm (Mm5MT/C1, mammary gland cancer cells of C3H-strain mice); test: 48 h incubation with the salts: cell fluorescence, living cells, multiplication coefficient (Table 3); type: cell-based, Murine; conditions: for Cell fluorescence /F/ / Cell multiplication coefficient /M/ / Percentage of living cells /P %/: Mm, 48 hs, 50 mcg/ml
Experimental: as §1, §2, §3, §4
mammary gland cancer cells of C3H-strain mice

[8] = system: HEp-2 (larynx cancer cells); test: as above; type: cell-based, Human; conditions: 48 hs, 50 mcg/ml
Experimental: as §1, §2, §3, §4
Hep-2 larynx cancer cells

[9] = system: Hela (cervix uteri cancer cells); test: 48 h incubation with the salts: cell fluorescence, living cells, multiplication coefficient (Table 1); type: cell-based, Human; conditions: 48 hs, 50 mcg/ml
Experimental: as §1, §2, §3, §4

Compound	Cell fluorescence /F/ [1]	Cell multiplication coefficient /M/ [1]	Percentage of living cells /P %/ [1] [%]	Cell fluorescence /F/ [2]	Cell multiplication coefficient /M/ [2]	Percentage of living cells /P %/ [2] [%]	Cell fluorescence /F/ [4]	Cell multiplication coefficient /M/ [4]	Percentage of living cells /P %/ [4] [%]	Cell fluorescence /F/ [5]	Cell multiplication coefficient /M/ [5]	Percentage of living cells /P %/ [5] [%]	Cell fluorescence /F/ (CL)	Cell multiplication coefficient /M/ (CL)	Percentage of living cells /P %/ (CL) [%]	Cell fluorescence /F/ (PZ)	Cell multiplication coefficient /M/ (PZ)	Percentage of living cells /P %/ (PZ) [%]	Cell fluorescence /F/ [6]	Cell multiplication coefficient /M/ [6]	other results
CC1=C(CCC(=O)O)c2cc3[nH]c(cc4nc(cc5[nH]c(cc1n2)c(C(C)NC(CCCCN)C(=O)O)c5C)C(C(C)NC(CCCCN)C(=O)O)=C4C)c(C)c3CCC(=O)O.N=C(N)NCCC[C@H](N)C(=O)O.N=C(N)NCCC[C@H](N)C(=O)O (stereo not drawn) [PP/Lys/2 /Arg/2, l-arginine di/N-lysyl/-protoporphyrinate]	++	0,92	57	-	0,12	12	+++	0,75	25	-	0,10	0	+	0,30	30	+	0,50	50	++++	0,44	mice survival [3]: most active, greatly prolonging mice survival; Percentage of living cells /P %/ [6]: 47%; Cell fluorescence /F/ [7]: ++; Cell multiplication coefficient /M/ [7]: 0,80; Percentage of living cells /P %/ [7]: 33%; activity in studies of the Mm5MT/C1 cell line (in words) ([7]; mammary gland cancer of C3H mice): one of the most active ones; Cell fluorescence /F/ [8]: ++; Cell multiplication coefficient /M/ [8]: 0,42; Percentage of living cells /P %/ [8]: 10%; Cell fluorescence /F/ [9]: +++; Cell multiplication coefficient /M/ [9]: 0,16; Percentage of living cells /P %/ [9]: 16%
l-arginine di/N-arginyl/-protoporphyrinate [PP/Arg/2 /Arg/2]	+++	0,40	40	+	0,16	16	+++	0,12	12	++	0,42	31	++	0,03	4	+	0,10	10	++++	0,28	Percentage of living cells /P %/ [6]: 28%; Cell fluorescence /F/ [7]: +++; Cell multiplication coefficient /M/ [7]: 0,38; Percentage of living cells /P %/ [7]: 12%; Cell fluorescence /F/ [8]: +; Cell multiplication coefficient /M/ [8]: 0,14; Percentage of living cells /P %/ [8]: 5%; Cell fluorescence /F/ [9]: ++++; Cell multiplication coefficient /M/ [9]: 0,28; Percentage of living cells /P %/ [9]: 11%
